Key:
[1] = Cell viability staining with Alamar Blue (compound cytotoxicity); assay type: cell-based; settings: positive control with known CC50
Method: To determine whether the microcidal effect observed against S. aureus and E. coli is specific to bacterial cells, compounds are screened for cell viability effects on several human cell types.
Optimal cell density is first determined by plating cells in a 96-well plate standard sterile tissue culture plates in 100 μl media, 10% FBS at six cell densities from 500 cells/well to 15,000 cells/well. A cell free well containing only media is used as a control. Cells are incubated at 37° C. in a 5% CO2 incubator for 24 hours. 10% culture volume (10 ul) of Alamar Blue (Biosource, DAL1100, 100 mL) is then added. Cells are incubated at 37° C. in a 5% CO2 incubator and read in a Victor V plate reader, 544 nm excitation, 590 nm emission, at 3, 4, and 24 hours after the addition of Alamar Blue. The cell number vs. change in fluorescence is plotted to determine linearity of signal vs. cell number. The optimal density varies between 500-15,000 cells/well depending on the specific cell type. […]
Cells are plated at optimal cell density in a standard sterile tissue culture 96 well plate, and incubated at 37° C. […] Plates are incubated 4 hours at 37° C. in a 5% CO2 incubator and read in a Victor V plate reader, 544 nm excitation, 590 nm emission. […]
The change in fluorescence vs. concentration of test compound is plotted to determine the cytotoxicity of the compound. […]

| Structure (SMILES) | melting point | CC50 ([1]; Chinese hamster, CHO cells (Chinese hamster ovary)) | CC50 ([1]; human, Hep 2 cells (laryngeal carcinoma)) |
| --- | --- | --- | --- |
| O=c1[nH]sc2c1c(=O)c1cc(F)c(C3=CCNCC3)cc1n2C1CC1 | > 241 °C (dec.) |  |  |
| NC1CCc2cc(-c3cc4c(cc3F)c(=O)c3c(=O)[nH]sc3n4C3CC3)ccc2C1 (racemic) [Compound 31, (rac)-7-(6-Amino-5,6,7,8-tetrahydronaphthalen-2-yl)-9-cyclopropyl-6-fluoro-9H-isothiazolo[5,4-b]quinoline-3,4-dione] | > 257 °C (dec.) |  |  |
| CC(C)(C)c1ccc(C(O)CCCN2CCC(C(O)(c3ccccc3)c3ccccc3)CC2)cc1 (stereo not shown) [Terfenadine] |  | 4.3 to 6.5 µM | 3 to 5 µM |

Reference: US8114888B2, “Isothiazoloquinolones and related compounds as anti-infective agents” (Achillion Pharmaceuticals, Inc., priority 2005, dated 2012)
